Here are results for 22 compounds from the C3SDB collision cross section collection.

Values joined by “and” are separate entries in the source; they are usually repeats but may differ in a detail not shown here. Identical values can stand only once.

For one data set the following is noted: [M+H-H2O]+; instrument: DT; stepped-field.
On to `OCC1OC(OC2C(CO)OC(OC3C(CO)OC(OC4C(CO)OC(OC5C(CO)OC(OC6C(CO)OC(OC7C(CO)OC(OC8C(CO)OC(OC9C(CO)OC(OC%10C(CO)OC(O)C(O)C%10O)C(O)C9O)C(O)C8O)C(O)C7O)C(O)C6O)C(O)C5O)C(O)C4O)C(O)C3O)C(O)C2O)C(O)C(O)C1O` (configuration not stated) [(Hex)10], for which the “collision cross section (N2)” value was determined as 383.4 Å².

Staying with this data set, now noted: [M+H]+; instrument: DT; stepped-field.
Consider `OCC1OC(OC2C(CO)OC(OC3C(CO)OC(OC4C(CO)OC(OC5C(CO)OC(OC6C(CO)OC(OC7C(CO)OC(OC8C(CO)OC(OC9C(CO)OC(OC%10C(CO)OC(O)C(O)C%10O)C(O)C9O)C(O)C8O)C(O)C7O)C(O)C6O)C(O)C5O)C(O)C4O)C(O)C3O)C(O)C2O)C(O)C(O)C1O` (configuration not stated) [(Hex)10], for which the “collision cross section (N2)” value is 365.1 Å² and 390.3 Å². The same measure, in the same setting: with `CC(C)C[C@H](NC(=O)[C@H](C)NC(=O)[C@H](CC(=O)O)NC(=O)[C@H](C)NC(=O)[C@H](C)N)C(=O)N[C@@H](CC(C)C)C(=O)N[C@@H](CC(C)C)C(=O)N[C@@H](CCCCN)C(=O)O` [AADALLLK] the figure was 291.8 Å² and 277.8 Å²; with `CCC(C)[C@H](NC(=O)[C@H](CC(N)=O)NC(=O)[C@H](C)N)C(=O)N[C@@H](CC(=O)O)C(=O)N[C@H](C(=O)N[C@@H](CCCCN)C(=O)O)C(C)C` (some centres not stated) [ANIDVK], 248.1 Å²; with `CC(C)C[C@H](NC(=O)[C@H](C)NC(=O)[C@@H](N)CCC(=O)O)C(=O)N[C@@H](CC(=O)O)C(=O)N[C@@H](Cc1ccccc1)C(=O)N[C@@H](Cc1ccccc1)C(=O)N[C@@H](C)C(=O)N[C@@H](CCCNC(=N)N)C(=O)O` [EALDFFAR], 305.9 Å².

Regarding `CC(C)C[C@H](NC(=O)[C@H](CCC(=O)O)NC(=O)[C@@H](N)CCC(=O)O)C(=O)N[C@@H](Cc1ccccc1)C(=O)N[C@@H](CCCNC(=N)N)C(=O)O` [EELFR], the “collision cross section (N2)” value is on record as 254.1 Å². Still for that read-out and setting: the value for `NCC(=O)N[C@@H](CCCN=C(N)N)C(=O)NCC(=O)N[C@@H](CC(=O)O)C(=O)N[C@@H](CO)C(=O)O` [GRGDS] was 205.9 Å²; that for `CC(C)[C@H](NC(=O)CN)C(=O)N[C@@H](Cc1ccccc1)C(=O)N[C@@H](CCCNC(=N)N)C(=O)O` [GVFR] was 214.8 Å²; that for `CC(C)C[C@H](NC(=O)[C@H](CC(=O)O)NC(=O)[C@H](C)NC(=O)[C@H](CC(C)C)NC(=O)[C@@H](N)Cc1c[nH]cn1)C(=O)N[C@@H](CO)C(=O)N[C@@H](CCCCN)C(=O)O` [HLADLSK] was 273.3 Å².

As to `CCC(C)[C@H](N)C(=O)NCC(=O)N[C@@H](CC(=O)O)C(=O)N[C@@H](Cc1ccc(O)cc1)C(=O)N[C@@H](C)C(=O)NCC(=O)N[C@H](C(=O)N[C@@H](CCCCN)C(=O)O)C(C)CC` (some centres not stated) [IGDYAGIK], the “collision cross section (N2)” value came out at 285.9 Å².

For `CC(C)C[C@H](NC(=O)[C@H](CC(C)C)NC(=O)[C@H](CCC(N)=O)NC(=O)[C@H](CC(N)=O)NC(=O)[C@@H](N)CC(C)C)C(=O)N[C@@H](CCCNC(=N)N)C(=O)O` [LNQLLR], the “collision cross section (N2)” value turned out to be 275.6 Å².

On to `CCC(C)[C@H](NC(=O)[C@H](CC(N)=O)NC(=O)[C@H](CCC(=O)O)NC(=O)[C@H](C)NC(=O)[C@H](CC(C)C)NC(=O)[C@@H](N)CC(N)=O)C(=O)N[C@@H](CO)C(=O)N[C@@H](CCCNC(=N)N)C(=O)O` (some centres not stated) [NLAENISR], for which the “collision cross section (N2)” value is listed as 291.7 Å².

Staying with this data set, now noted: [M+K]+; instrument: DT; stepped-field.
For the compound `NCC(=O)N[C@@H](CCCN=C(N)N)C(=O)NCC(=O)N[C@@H](CC(=O)O)C(=O)N[C@@H](CO)C(=O)O` [GRGDS], the “collision cross section (N2)” value was determined as 210.4 Å².

`CC(=O)NC1C(OC2C(O)C(CO)OC(OC3C(CO)OC(O)C(O)C3O)C2O)OC(CO)C(O)C1OC1OC(CO)C(O)C(O)C1O` (configuration not stated) [HexNAc-(Hex)3]: the “collision cross section (N2)” value stood at 248.2 Å². Same read-out and setting: with `CC(=O)N[C@H]1[C@H](OC2[C@@H](O)[C@H](O[C@@H]([C@H](O[C@@H]3O[C@@H](C)[C@@H](O)[C@@H](O)[C@@H]3O)[C@@H](O)C=O)[C@H](O)CO)O[C@H](CO)[C@@H]2O)O[C@H](CO)[C@@H](O[C@@H]2O[C@@H](C)[C@@H](O)[C@@H](O)[C@@H]2O)[C@@H]1O[C@@H]1O[C@H](CO)[C@H](O)[C@H](O)[C@H]1O` (some centres not stated) [Lacto-N-Difucohexaose II] the figure was 305.8 Å²; with `OC[C@H]1O[C@H](O[C@H]2[C@H](O)[C@@H](O)[C@@H](O[C@H]3[C@H](O)[C@@H](O)[C@@H](O[C@H]4[C@H](O)[C@@H](O)[C@@H](O[C@H]5[C@H](O)[C@@H](O)[C@@H](O[C@H]6[C@H](O)[C@@H](O)[C@@H](O)O[C@@H]6CO)O[C@@H]5CO)O[C@@H]4CO)O[C@@H]3CO)O[C@@H]2CO)[C@H](O)[C@@H](O)[C@@H]1O` [Maltohexaose], 293.3 Å². On the same count and under the same terms, the value for `CCCCC/C=C\C/C=C\C/C=C\CCCCC(=O)O[C@H](COC(=O)CCCCCCCCCCCCC)COP(=O)([O-])OCC[N+](C)(C)C` [PC(32:3)] was 288.9 Å². Same read-out and setting: with `CCCCC/C=C\C/C=C\C/C=C\CCCCC(=O)O[C@H](COC(=O)CCCCCCC/C=C\CCCCC)COP(=O)([O-])OCC[N+](C)(C)C` [PC(33:4)] the figure was 287.5 Å²; with `CC\C=C/C=C/C=C/C=C\CCCCCCCC(=O)O[C@H](COC(=O)CCCCCCCCCCCCCCC)COP(=O)([O-])OCC[N+](C)(C)C` [PC(34:4)], 289 Å².

Staying with this data set, now noted: [M+Na-H2O]+; instrument: DT; stepped-field.
`CC(=O)NC1C(OC2C(O)C(CO)OC(OC3C(CO)OC(O)C(O)C3O)C2O)OC(CO)C(O)C1OC1OC(CO)C(O)C(O)C1O` (configuration not stated) [HexNAc-(Hex)3]: the “collision cross section (N2)” value is 244.9 Å². On to `CC(=O)NC1C(OC2C(O)C(CO)OC(OC(C(O)CO)C(OC3OC(C)C(O)C(O)C3O)C(O)C=O)C2O)OC(CO)C(O)C1OC1OC(CO)C(O)C(O)C1O` (configuration not stated) [HexNAc-Fuc-(Hex)3], for which the “collision cross section (N2)” value is 262 Å² and 263.1 Å².

Staying with this data set, now noted: [M+Na]+; instrument: DT; stepped-field.
As for `OCC1OC(OC2C(CO)OC(OC3C(CO)OC(OC4C(CO)OC(OC5C(CO)OC(OC6C(CO)OC(OC7C(CO)OC(OC8C(CO)OC(OC9C(CO)OC(OC%10C(CO)OC(O)C(O)C%10O)C(O)C9O)C(O)C8O)C(O)C7O)C(O)C6O)C(O)C5O)C(O)C4O)C(O)C3O)C(O)C2O)C(O)C(O)C1O` (configuration not stated) [(Hex)10], the “collision cross section (N2)” value was 365.1 Å² and 373.8 Å². Same read-out and setting: with `NCC(=O)N[C@@H](CCCN=C(N)N)C(=O)NCC(=O)N[C@@H](CC(=O)O)C(=O)N[C@@H](CO)C(=O)O` [GRGDS] the figure was 208.2 Å²; with `CCCCCCCCCCCCCCCC(=O)N[C@@H](CO[C@@H]1O[C@H](CO)[C@@H](O)C(O)C1O)[C@H](O)CCCCCCCCCCCCCCC` (some centres not stated) [GlcCer(34:0)], 281.7 Å². On the same count and under the same terms, with `CCCCCCCCCCCCC=CC[C@@H](O)[C@H](CO[C@@H]1O[C@H](CO)[C@@H](O)C(O)C1O)NC(=O)CCCCCCCCCCCCCCCCCC` (some centres not stated) [GlcCer(37:1)] the figure was 286.8 Å².

Take `CCCCCCCCCCCCCCCCCCCC(=O)N[C@@H](CO[C@@H]1O[C@H](CO)[C@@H](O)C(O)C1O)[C@H](O)CCCCCCCCCCCCCCC` (some centres not stated) [GlcCer(38:0)]: the “collision cross section (N2)” value came to 295.6 Å². On the same count and under the same terms, the value for `CCCCCCCCCCCCC=CC[C@@H](O)[C@H](CO[C@@H]1O[C@H](CO)[C@@H](O)C(O)C1O)NC(=O)CCCCCCCCCCCCCCCCCCC` (some centres not stated) [GlcCer(38:1)] was 293.8 Å².
